Each structure is given as a SMILES string.

The values that follow come from paper PMC12969314 (European journal of medicinal chemistry, 2022).

Series [1] in a line: Discrete mouse in vivo PK study, plasma and brain. The settings on record: for half-life: ip, 5 mg/kg.
A short description of series [2]: Mouse plasma protein binding, equilibrium dialysis. It counts as in vitro ADME. The settings on record: mouse, plasma, fu (mPPB), fraction, used for Kp,uu. On the technique in general: In equilibrium dialysis free small molecules cross a membrane that holds back macromolecules.
In series [3] the target is T1, D4 receptor (Homo sapiens, UniProt P21917).
T1 sequence (P21917 1-419): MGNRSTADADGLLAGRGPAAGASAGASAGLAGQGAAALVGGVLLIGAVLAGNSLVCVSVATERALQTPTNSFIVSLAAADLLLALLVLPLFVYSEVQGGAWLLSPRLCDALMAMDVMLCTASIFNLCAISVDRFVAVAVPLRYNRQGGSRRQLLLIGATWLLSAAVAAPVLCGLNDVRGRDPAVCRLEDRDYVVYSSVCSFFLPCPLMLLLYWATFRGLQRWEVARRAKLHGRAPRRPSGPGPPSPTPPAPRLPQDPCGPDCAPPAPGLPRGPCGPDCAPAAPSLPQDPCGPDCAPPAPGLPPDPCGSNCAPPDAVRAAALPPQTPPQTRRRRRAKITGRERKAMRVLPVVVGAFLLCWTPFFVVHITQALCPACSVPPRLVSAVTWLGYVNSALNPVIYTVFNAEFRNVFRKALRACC
Format: binding.

The target of series [4] is SERT (Homo sapiens, UniProt P31645). Kind of series: PDSP panel binding, SERT. Conditions: σ1 over SERT.
Series [5] can be described thus: Mouse brain homogenate binding. Format: in vitro ADME.
Series [6] can be described thus: Human liver microsomal intrinsic clearance. Conditions: human; for CLint scaled: liver microsomes, Intrinsic clearance hCLINT, human liver microsomes; for Predicted hepatic clearance hCLHEP: well-stirred organ CL model, binding terms excluded. It counts as in vitro ADME.
Series [7] has as its target T2, α2C (Homo sapiens, UniProt P18825).
T2 sequence (P18825 1-462): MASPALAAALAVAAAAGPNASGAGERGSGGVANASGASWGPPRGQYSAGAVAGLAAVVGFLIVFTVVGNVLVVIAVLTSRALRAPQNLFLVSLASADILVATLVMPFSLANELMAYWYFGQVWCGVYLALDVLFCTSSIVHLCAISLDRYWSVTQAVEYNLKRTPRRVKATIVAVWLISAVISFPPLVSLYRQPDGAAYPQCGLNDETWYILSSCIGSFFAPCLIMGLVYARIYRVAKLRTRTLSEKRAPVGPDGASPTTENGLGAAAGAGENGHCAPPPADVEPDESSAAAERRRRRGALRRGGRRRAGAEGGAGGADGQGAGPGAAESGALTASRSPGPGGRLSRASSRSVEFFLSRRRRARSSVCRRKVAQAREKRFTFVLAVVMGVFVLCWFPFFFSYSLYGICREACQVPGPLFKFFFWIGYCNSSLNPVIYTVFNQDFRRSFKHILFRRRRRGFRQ
Briefly: PDSP panel binding, α2C.

The nature of series [8]: Mouse liver microsomal intrinsic clearance. Format: in vitro ADME. Conditions: for Predicted hepatic clearance mCLHEP: well-stirred organ CL model, binding terms excluded; for CLint scaled: liver microsomes.
Series [9] concerns the target σ2 receptor (Homo sapiens, UniProt Q5BJF2). Kind of series: σ2 receptor radioligand binding, [3H]DTG, HEK293 membranes. The settings on record: ratio, σ1 over σ2.
Series [10] in a line: Human plasma protein binding, equilibrium dialysis. Format: in vitro ADME.
Series [11] deals with D1 receptor (Homo sapiens, UniProt P21728). Briefly: D1 receptor radioligand binding, [3H]SCH23390, HEK293 membranes.
Series [12] concerns the target T3, α2A (Homo sapiens, UniProt P08913).
T3 sequence (P08913 1-465): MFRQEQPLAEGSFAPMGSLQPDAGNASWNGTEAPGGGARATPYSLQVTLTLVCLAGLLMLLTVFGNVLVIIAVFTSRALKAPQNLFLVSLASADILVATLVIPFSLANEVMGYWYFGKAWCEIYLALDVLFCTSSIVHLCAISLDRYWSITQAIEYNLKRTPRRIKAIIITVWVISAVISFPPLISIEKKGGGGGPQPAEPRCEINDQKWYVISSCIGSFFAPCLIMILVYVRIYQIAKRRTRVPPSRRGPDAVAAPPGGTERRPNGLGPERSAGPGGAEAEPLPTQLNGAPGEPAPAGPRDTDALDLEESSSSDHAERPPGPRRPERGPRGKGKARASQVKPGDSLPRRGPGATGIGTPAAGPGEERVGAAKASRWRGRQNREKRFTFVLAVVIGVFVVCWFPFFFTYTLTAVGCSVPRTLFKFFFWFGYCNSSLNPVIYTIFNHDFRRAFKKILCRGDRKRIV
Briefly: PDSP panel binding, α2A.

Chain of σ2 receptor (Q5BJF2 whole entry, species assumed): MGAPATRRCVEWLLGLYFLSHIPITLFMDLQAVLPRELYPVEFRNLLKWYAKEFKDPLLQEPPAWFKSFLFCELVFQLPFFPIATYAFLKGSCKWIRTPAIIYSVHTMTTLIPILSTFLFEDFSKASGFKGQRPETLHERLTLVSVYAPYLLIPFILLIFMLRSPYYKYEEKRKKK
Chain of SERT (P31645 whole entry, species assumed): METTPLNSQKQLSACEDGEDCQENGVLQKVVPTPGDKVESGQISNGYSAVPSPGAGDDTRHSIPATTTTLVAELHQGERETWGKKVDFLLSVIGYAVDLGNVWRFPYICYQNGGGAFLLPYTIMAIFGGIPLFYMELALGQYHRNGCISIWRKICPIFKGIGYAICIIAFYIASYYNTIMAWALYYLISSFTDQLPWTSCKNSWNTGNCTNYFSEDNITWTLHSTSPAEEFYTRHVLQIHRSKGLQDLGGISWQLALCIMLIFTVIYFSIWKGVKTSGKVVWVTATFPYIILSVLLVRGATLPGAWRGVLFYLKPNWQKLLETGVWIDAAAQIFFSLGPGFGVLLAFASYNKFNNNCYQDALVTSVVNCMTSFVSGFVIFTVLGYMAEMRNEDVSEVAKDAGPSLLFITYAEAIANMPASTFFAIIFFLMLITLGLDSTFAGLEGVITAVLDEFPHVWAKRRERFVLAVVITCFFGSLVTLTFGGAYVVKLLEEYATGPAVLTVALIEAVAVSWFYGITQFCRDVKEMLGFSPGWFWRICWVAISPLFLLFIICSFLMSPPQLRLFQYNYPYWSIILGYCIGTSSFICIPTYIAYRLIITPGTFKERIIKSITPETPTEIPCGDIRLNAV
Chain of D1 receptor (P21728 whole entry): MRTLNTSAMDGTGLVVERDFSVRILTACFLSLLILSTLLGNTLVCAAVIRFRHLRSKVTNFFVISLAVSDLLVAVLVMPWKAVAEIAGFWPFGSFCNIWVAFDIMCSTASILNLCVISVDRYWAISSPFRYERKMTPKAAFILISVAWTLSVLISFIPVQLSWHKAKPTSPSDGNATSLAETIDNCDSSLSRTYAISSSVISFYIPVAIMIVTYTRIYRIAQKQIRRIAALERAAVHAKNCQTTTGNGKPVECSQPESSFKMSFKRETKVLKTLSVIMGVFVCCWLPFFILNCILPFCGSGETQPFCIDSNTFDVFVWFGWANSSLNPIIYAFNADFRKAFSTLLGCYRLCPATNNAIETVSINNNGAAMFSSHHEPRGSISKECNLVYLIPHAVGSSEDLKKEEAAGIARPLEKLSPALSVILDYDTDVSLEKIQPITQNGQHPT

With `Fc1ccc(COC2CCN(Cc3ccc4[nH]cnc4c3)CC2)cc1F` [Compound 10a, 5-((4-((3,4-difluorobenzyl)oxy)piperidin-1-yl)methyl)-1H-benzo[d]imidazole], in [1] (IP 5 mg/kg, 5 h, free brain to free plasma concentration), the “B:P Kp,uu” value is reported as 3.68. For the same molecule, the half-life (commonly how long it takes for the measured level to halve) was 546 min in series [1] (brain) and 126 min in [1] (plasma). Also, the fraction unbound (commonly the share of the substance not bound to proteins or other matrix) came to 0.358 in [2] and 0.205 in [5]. Also, the “selectivity against the dopamine receptor family” value in series [3] (σ1 over D1-5) is reported as above 490 fold. Besides, the “selectivity versus SERT” value in series [4] was 20. For the same molecule, the intrinsic metabolic clearance (CLint scaled) – broadly, a measure of how fast metabolising enzymes remove a compound, apart from limits set by blood flow – in series [6] was below 20 mL/min/kg. In series [6], the “Predicted hepatic clearance hCLHEP” value is given as below 10 mL/min/kg. In addition, the affinity in series [7] corresponds to a Ki of 853 nM. In series [7] (σ1 over α2C), the “selectivity versus α2C” value was 103. In addition, in [8], the “Predicted hepatic clearance mCLHEP” value is recorded as 46.0 mL/min/kg. For the same molecule, the “selectivity σ1:σ2” value in series [9] was 20.
Regarding `Fc1cc(COC2CCN(Cc3ccc4[nH]cnc4c3)CC2)ccc1Cl` [Compound 10b, 5-((4-((4-chloro-3-fluorobenzyl)oxy)piperidin-1-yl)methyl)-1H-benzo[d]imidazole], the half-life was 414 min in [1] (brain) and 222 min in series [1] (plasma). The results for the fraction unbound in [2] and in series [5] were 0.189 and 0.093, respectively. The “Predicted hepatic clearance hCLHEP” value in series [6] is listed as 14.2 mL/min/kg. Moreover, the “Predicted hepatic clearance mCLHEP” value in series [8] is given as 45.1 mL/min/kg.
As for `COc1ccc(CN2CCC[C@@H](OCc3ccc(F)c(C)c3)C2)cc1F` [Compound 19b, (R)-3-((4-fluoro-3-methylbenzyl)oxy)-1-(3-fluoro-4-methoxybenzyl)piperidine], in series [6], the intrinsic clearance (CLint scaled) was 674 mL/min/kg and the “Predicted hepatic clearance hCLHEP” value was 19.5 mL/min/kg. Also, in series [8], the intrinsic metabolic clearance (CLint scaled) was 961 mL/min/kg and the “Predicted hepatic clearance mCLHEP” value is 82.4 mL/min/kg. Further, the “Stability in human plasma (hPPB column)” value in series [10] is “c”.
Turning to `COc1ccc(CO[C@H]2CCCN(Cc3cccc(C)c3)C2)cc1F` [Compound 19h, (S)-3-((3-fluoro-4-methoxybenzyl)oxy)-1-(3-methylbenzyl)piperidine], the Ki in series [3] and in series [11] was above 10 µM in each case. For the same molecule, the inhibition – broadly, how much of the control response was suppressed – at 10 µM in series [3] (read-out: D4 % inhibition) was 46%.
With `Fc1ccc(CN2CCCC23CCN(Cc2cn4ccccc4n2)C3)cc1F` (centres unmarked) [Compound 25a, 1-(3,4-difluorobenzyl)-7-(imidazo[1,2-a]pyridin-2-ylmethyl)-1,7-diazaspiro[4.4]nonane], the inhibition constant Ki – broadly, a measure of affinity in units of concentration, obtained from inhibition or displacement – in series [3] is above 10 µM. Moreover, in [6], the CLint scaled worked out at 223 mL/min/kg and the “Predicted hepatic clearance hCLHEP” value is on record as 18.4 mL/min/kg. In series [8], the CLint scaled turned out to be 696 mL/min/kg and the “Predicted hepatic clearance mCLHEP” value is on record as 79.8 mL/min/kg. In addition, the affinity in [12] corresponds to a Ki of 697 nM. For the same molecule, the “selectivity versus α2A” value in series [12] (σ1 over α2A) is 194. The “selectivity σ1:σ2” value in [9] came out at 6.
